Reference: patent US7906507B2, “Oxadiazoanthracene compounds for the treatment of diabetes” (TransTech Pharma, Inc., priority 2008, dated 2011)

Biological target: T1, cloned human GLP-1 receptor (Homo sapiens, UniProt P43220)
T1 construct: expressed in transfected cells; host or cells: CHO or HEK-293 cells
Assay: Functional cell-based assay: cAMP functional assay
Details: for Emax: 0.5 h, percentage relative to maximal GLP-1-induced cAMP accumulation, na = not active in the assay, read-out: % activation
Experimental: Following overnight incubation of cells, media was removed, and compounds (at concentrations ranging from 0.0001 to 100 μM) were added to monolayer cells in Iscove's modified dulbecco's medium (IMDM), 100 μM RO 20-1724 PDE inhibitor, 0.1% BSA, 2% DMSO in a final volume of 100 μL, and incubated for 30 min at 37° C. 95% O2, 5% CO2 in a humidified incubator. cAMP was quantitated using a homogenous time-resolved fluorescence detection system (cAMP dynamic, CIS bio International).

T1 sequence (P43220 24-463): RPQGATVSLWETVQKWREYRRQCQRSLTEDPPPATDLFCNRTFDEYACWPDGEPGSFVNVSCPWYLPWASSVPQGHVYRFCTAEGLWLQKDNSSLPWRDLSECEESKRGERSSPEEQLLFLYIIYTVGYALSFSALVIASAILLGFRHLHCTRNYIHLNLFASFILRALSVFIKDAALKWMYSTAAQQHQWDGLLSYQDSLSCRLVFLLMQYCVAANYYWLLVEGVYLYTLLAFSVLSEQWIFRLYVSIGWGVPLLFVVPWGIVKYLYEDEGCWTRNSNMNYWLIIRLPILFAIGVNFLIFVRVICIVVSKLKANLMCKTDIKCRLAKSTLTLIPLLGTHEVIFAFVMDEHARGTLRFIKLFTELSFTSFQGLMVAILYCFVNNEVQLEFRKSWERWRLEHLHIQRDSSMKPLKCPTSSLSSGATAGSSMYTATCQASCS

SMILES	EC50 [µM]	Emax [%]
N#Cc1ccc(-c2ccc(C[C@H](NC(=O)[C@@H]3Cc4cc5c(cc4CN3C(=O)c3cccnc3)OC(c3ccc(OCc4ccc(Cl)c(Cl)c4)cc3)C(=O)N5)C(=O)O)cc2)cc1 (stereo partly drawn) [Example 4, (S)-3-(4′-Cyano-biphenyl-4-yl)-2-{[(S)-3-[4-(3,4-dichloro-benzyloxy)-phenyl]-2-oxo-6-(pyridine-3-carbonyl)-2,3,5,6,7,8-hexahydro-1H-4-oxa-1,6-diaza-anthracene-7-carbonyl]-amino}-propionic acid]	3.8	20
N#Cc1ccc(-c2ccc(C[C@H](NC(=O)[C@@H]3Cc4cc5c(cc4CN3C(=O)OC3CCC(O)CC3)OC(c3ccc(OCc4ccc(Cl)c(Cl)c4)cc3)C(=O)N5)C(=O)O)cc2)cc1 (stereo partly drawn) [Example 1, (S)-7-[(S)-1-Carboxy-2-(4′-cyano-biphenyl-4-yl)-ethylcarbamoyl]-3-[4-(3,4-dichloro-benzyloxy)-phenyl]-2-oxo-1,2,3,5,7,8-hexahydro-4-oxa-1,6-diaza-anthracene-6-carboxylic acid 4-hydroxy-cyclohexyl ester]	0.9	15
Cc1ccc(-c2ccc(C[C@H](NC(=O)[C@@H]3Cc4cc5c(cc4CN3Cc3ccccn3)OC(c3ccc(OCc4ccc(Cl)c(Cl)c4)cc3)C(=O)N5)C(=O)O)cc2)cc1 (stereo partly drawn) [Example 85, (S)-2-({(S)-3-[4-(3,4-Dichloro-benzyloxy)-phenyl]-2-oxo-6-pyridin-2-ylmethyl-2,3,5,6,7,8-hexahydro-1H-4-oxa-1,6-diaza-anthracene-7-carbonyl}-amino)-3-(4′-methyl-biphenyl-4-yl)-propionic acid]	2	55
CCc1ccccc1CN1Cc2cc3c(cc2C[C@H]1C(=O)N[C@@H](Cc1ccc(-c2ccc(C#N)cc2)cc1)C(=O)O)N(C)C(=O)C(c1ccc(OCc2ccc(Cl)c(Cl)c2)cc1)O3 (stereo partly drawn) [Example 71, (S)-3-(4′-Cyano-biphenyl-4-yl)-2-{[(S)-3-[4-(3,4-dichloro-benzyloxy)-phenyl]-6-(2-ethyl-benzyl)-1-methyl-2-oxo-2,3,5,6,7,8-hexahydro-1H-4-oxa-1,6-diaza-anthracene-7-carbonyl]-amino}-propionic acid]	0.793	49
CC[C@@H](c1ccccc1)N1Cc2cc3c(cc2C[C@H]1C(=O)N[C@@H](Cc1ccc(-c2ccc(Cl)cc2)cc1)C(=O)O)N(C)C(=O)[C@@H](c1ccc(OCc2ccc(Cl)c(Cl)c2)cc1)O3 [Example 90, (S)-3-(4′-Chloro-biphenyl-4-yl)-2-{[(3R,7S)-3-[4-(3,4-dichloro-benzyloxy)-phenyl]-1-methyl-2-oxo-6-((S)-1-phenyl-propyl)-2,3,5,6,7,8-hexahydro-1H-4-oxa-1,6-diaza-anthracene-7-carbonyl]-amino}-propionic acid]	1.23	43
COc1ccc(COc2ccc(C3Oc4cc5c(cc4NC3=O)C[C@@H](C(=O)N[C@@H](Cc3ccc(-c4ccc(C#N)cc4)cc3)C(=O)O)N(C(=O)c3ccccc3)C5)cc2)cc1C(F)(F)F (stereo partly drawn) [Example 62, (S)-2-({(S)-6-Benzoyl-3-[4-(4-methoxy-3-trifluoromethyl-benzyloxy)-phenyl]-2-oxo-2,3,5,6,7,8-hexahydro-1H-4-oxa-1,6-diaza-anthracene-7-carbonyl}-amino)-3-(4′-cyano-biphenyl-4-yl)-propionic acid]	1	15
O=C1Nc2cc3c(cc2OC1c1ccc(OCc2ccc(Cl)c(Cl)c2)cc1)CN(C(=O)c1ccccc1)[C@H](C(=O)N[C@@H](Cc1ccc(Oc2ccncc2)cc1)C(=O)O)C3 (stereo partly drawn) [Example 99, (S)-2-({(S)-6-Benzoyl-3-[4-(3,4-dichloro-benzyloxy)-phenyl]-2-oxo-2,3,5,6,7,8-hexahydro-1H-4-oxa-1,6-diaza-anthracene-7-carbonyl}-amino)-3-[4-(pyridin-4-yloxy)-phenyl]-propionic acid]	1	28
Cc1cc(C(=O)N2Cc3cc4c(cc3C[C@H]2C(=O)N[C@@H](Cc2ccc(-c3ccc(C#N)cc3)cc2)C(=O)O)NC(=O)C(c2ccc(OCc3ccc(Cl)c(Cl)c3)cc2)O4)no1 (stereo partly drawn) [Example 31, (S)-3-(4′-Cyano-biphenyl-4-yl)-2-{[(S)-3-[4-(3,4-dichloro-benzyloxy)-phenyl]-6-(5-methyl-isoxazole-3-carbonyl)-2-oxo-2,3,5,6,7,8-hexahydro-1H-4-oxa-1,6-diaza-anthracene-7-carbonyl]-amino}-propionic acid]	1	13
N#Cc1ccc(-c2ccc(C[C@H](NC(=O)[C@@H]3Cc4cc5c(cc4CN3CCc3ccccc3)OC(c3ccc(OCc4ccc(Cl)c(Cl)c4)cc3)C(=O)N5)C(=O)O)cc2)cc1 (stereo partly drawn) [Example 35, (S)-3-(4′-Cyano-biphenyl-4-yl)-2-({(S)-3-[4-(3,4-dichloro-benzyloxy)-phenyl]-2-oxo-6-phenethyl-2,3,5,6,7,8-hexahydro-1H-4-oxa-1,6-diaza-anthracene-7-carbonyl}-amino)-propionic acid]	1.2	16
Cc1ccccc1CN1Cc2cc3c(cc2C[C@H]1C(=O)N[C@@H](Cc1ccc(-c2ccc(C#N)cc2)cc1)C(=O)O)NC(=O)C(c1ccc(OCc2ccc(Cl)c(Cl)c2)cc1)O3 (stereo partly drawn) [Example 38, (S)-3-(4′-Cyano-biphenyl-4-yl)-2-{[(S)-3-[4-(3,4-dichloro-benzyloxy)-phenyl]-6-(2-methyl-benzyl)-2-oxo-2,3,5,6,7,8-hexahydro-1H-4-oxa-1,6-diaza-anthracene-7-carbonyl]-amino}-propionic acid]	0.71	32

The next compounds have a lower EC50 than those just listed; values first:

EC50 [µM]	Emax [%]	SMILES
0.399	70.3	Cc1cccc(C(=O)N2Cc3cc4c(cc3C[C@H]2C(=O)N[C@@H](Cc2ccc(-c3ccc(C#N)cc3)cc2)C(=O)O)NC(=O)C(c2ccc(OCc3ccc(Cl)c(Cl)c3)cc2)O4)c1 (stereo partly drawn) [Example 21, (S)-3-(4′-Cyano-biphenyl-4-yl)-2-{[(S)-3-[4-(3,4-dichloro-benzyloxy)-phenyl]-6-(3-methyl-benzoyl)-2-oxo-2,3,5,6,7,8-hexahydro-1H-4-oxa-1,6-diaza-anthracene-7-carbonyl]-amino}-propionic acid]
0.0593	58	CC[C@@H](c1ccccc1)N1Cc2cc3c(cc2C[C@H]1C(=O)N[C@@H](Cc1ccc(-c2ccc(C#N)cc2)cc1)C(=O)O)N(C)C(=O)[C@@H](c1ccc(OCc2ccc(Cl)c(Cl)c2)cc1)O3 [Example 86, (S)-3-(4′-Cyano-biphenyl-4-yl)-2-{[(3R,7S)-3-[4-(3,4-dichloro-benzyloxy)-phenyl]-1-methyl-2-oxo-6-((S)-1-phenyl-propyl)-2,3,5,6,7,8-hexahydro-1H-4-oxa-1,6-diaza-anthracene-7-carbonyl]-amino}-propionic acid]
0.626	42	CC[C@@H](c1ccccc1)N1Cc2cc3c(cc2C[C@H]1C(=O)N[C@H](Cc1ccc(-c2ccc(C#N)cc2)cc1)C(=O)O)N(C)C(=O)[C@@H](c1ccc(OCc2ccc(Cl)c(Cl)c2)cc1)O3 [Example 98, (R)-3-(4′-Cyano-biphenyl-4-yl)-2-{[(3R,7S)-3-[4-(3,4-dichloro-benzyloxy)-phenyl]-1-methyl-2-oxo-6-((S)-1-phenyl-propyl)-2,3,5,6,7,8-hexahydro-1H-4-oxa-1,6-diaza-anthracene-7-carbonyl]-amino}-propionic acid]
0.134	64	CC(C)OC(=O)N1Cc2cc3c(cc2C[C@H]1C(=O)N[C@@H](Cc1ccc(-c2ccc(C#N)cc2)cc1)C(=O)O)NC(=O)C(c1ccc(OCc2ccc(Cl)c(Cl)c2)cc1)O3 (stereo partly drawn) [Example 8, (S)-7-[(S)-1-Carboxy-2-(4′-cyano-biphenyl-4-yl)-ethylcarbamoyl]-3-[4-(3,4-dichloro-benzyloxy)-phenyl]-2-oxo-1,2,3,5,7,8-hexahydro-4-oxa-1,6-diaza-anthracene-6-carboxylic acid isopropyl ester]
0.362	8.5	Cc1noc(C)c1S(=O)(=O)N1Cc2cc3c(cc2C[C@H]1C(=O)N[C@@H](Cc1ccc(-c2ccc(C#N)cc2)cc1)C(=O)O)N(C)C(=O)C(c1ccc(OCc2ccc(Cl)c(Cl)c2)cc1)O3 (stereo partly drawn) [Example 96, (S)-3-(4′-Cyano-biphenyl-4-yl)-2-{[(S)-3-[4-(3,4-dichloro-benzyloxy)-phenyl]-6-(3,5-dimethyl-isoxazole-4-sulfonyl)-1-methyl-2-oxo-2,3,5,6,7,8-hexahydro-1H-4-oxa-1,6-diaza-anthracene-7-carbonyl]-amino}-propionic acid]
0.19	36	N#Cc1ccc(-c2ccc(C[C@H](NC(=O)[C@@H]3Cc4cc5c(cc4CN3C(=O)c3ccccc3)OC(c3ccc(OCc4cnc(Cl)c(Cl)c4)cc3)C(=O)N5)C(=O)O)cc2)cc1 (stereo partly drawn) [Example 64, (S)-2-({(S)-6-Benzoyl-3-[4-(5,6-dichloro-pyridin-3-ylmethoxy)-phenyl]-2-oxo-2,3,5,6,7,8-hexahydro-1H-4-oxa-1,6-diaza-anthracene-7-carbonyl}-amino)-3-(4′-cyano-biphenyl-4-yl)-propionic acid]
0.657	78	N#Cc1ccc(-c2ccc(C[C@H](NC(=O)[C@@H]3Cc4cc5c(cc4CN3C(=O)C3CCCC3)OC(c3ccc(OCc4ccc(Cl)c(Cl)c4)cc3)C(=O)N5)C(=O)O)cc2)cc1 (stereo partly drawn) [Example 16, (S)-3-(4′-Cyano-biphenyl-4-yl)-2-({(S)-6-cyclopentanecarbonyl-3-[4-(3,4-dichloro-benzyloxy)-phenyl]-2-oxo-2,3,5,6,7,8-hexahydro-1H-4-oxa-1,6-diaza-anthracene-7-carbonyl}-amino)-propionic acid]
